{
  "source": "paper PMC7486443",
  "about": "“Generation of Phenothiazine with Potent Anti-TLK1 Activity for Prostate Cancer Therapy” (iScience, 2020)",
  "experiment_in_all_cases": "biochemical",
  "parameters_in_all_cases": "DiscoverX KINOMEscan scanMAX competition binding panel, single concentration, percent of control; remaining binding: dose or concentration left out as unconfirmed",
  "conditions_in_all_cases": "KINOMEscan binding, percent of control; read-out: Table S4_SCANMAX REPORT - related to Fig. 1 / Percent Control",
  "key": {"FLT4": {"target": "FLT4 (Homo sapiens, UniProt P35916)", "sequence (P35916 whole entry)": "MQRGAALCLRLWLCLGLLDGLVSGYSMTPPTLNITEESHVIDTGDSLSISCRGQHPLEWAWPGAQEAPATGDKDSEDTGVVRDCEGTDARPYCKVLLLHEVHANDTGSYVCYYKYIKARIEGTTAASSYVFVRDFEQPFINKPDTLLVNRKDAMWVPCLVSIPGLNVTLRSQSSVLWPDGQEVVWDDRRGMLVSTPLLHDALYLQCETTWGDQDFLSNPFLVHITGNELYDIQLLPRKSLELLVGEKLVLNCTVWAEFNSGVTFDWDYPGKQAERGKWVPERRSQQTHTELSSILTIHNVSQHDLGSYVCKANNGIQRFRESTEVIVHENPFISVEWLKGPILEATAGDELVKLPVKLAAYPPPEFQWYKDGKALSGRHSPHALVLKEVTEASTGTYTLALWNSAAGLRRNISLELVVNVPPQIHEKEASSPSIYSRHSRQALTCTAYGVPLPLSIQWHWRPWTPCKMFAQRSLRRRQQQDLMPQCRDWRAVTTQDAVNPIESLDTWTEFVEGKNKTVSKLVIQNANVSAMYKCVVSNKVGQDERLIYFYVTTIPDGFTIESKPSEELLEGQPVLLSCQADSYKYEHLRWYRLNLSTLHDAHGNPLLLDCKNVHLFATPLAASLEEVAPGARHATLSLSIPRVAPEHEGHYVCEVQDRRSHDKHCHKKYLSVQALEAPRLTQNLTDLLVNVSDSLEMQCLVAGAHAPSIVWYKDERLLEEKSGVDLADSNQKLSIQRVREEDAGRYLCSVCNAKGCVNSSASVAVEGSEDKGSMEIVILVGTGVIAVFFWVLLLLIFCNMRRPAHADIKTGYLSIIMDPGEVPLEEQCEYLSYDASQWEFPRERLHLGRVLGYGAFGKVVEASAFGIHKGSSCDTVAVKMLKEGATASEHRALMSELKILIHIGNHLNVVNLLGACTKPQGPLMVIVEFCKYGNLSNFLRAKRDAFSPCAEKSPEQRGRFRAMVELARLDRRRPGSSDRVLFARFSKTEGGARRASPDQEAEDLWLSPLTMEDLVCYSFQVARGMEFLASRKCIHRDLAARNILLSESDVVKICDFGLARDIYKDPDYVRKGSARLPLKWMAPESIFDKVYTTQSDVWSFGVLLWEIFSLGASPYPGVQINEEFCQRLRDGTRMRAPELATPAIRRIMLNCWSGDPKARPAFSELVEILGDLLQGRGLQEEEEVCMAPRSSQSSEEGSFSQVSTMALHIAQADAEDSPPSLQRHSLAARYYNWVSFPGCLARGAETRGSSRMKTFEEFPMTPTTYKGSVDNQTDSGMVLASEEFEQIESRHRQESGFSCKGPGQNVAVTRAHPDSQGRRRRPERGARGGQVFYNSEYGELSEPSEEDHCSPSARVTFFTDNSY"}, "GRK3": {"target": "GRK3 (Homo sapiens, UniProt P35626)", "sequence (P35626 whole entry)": "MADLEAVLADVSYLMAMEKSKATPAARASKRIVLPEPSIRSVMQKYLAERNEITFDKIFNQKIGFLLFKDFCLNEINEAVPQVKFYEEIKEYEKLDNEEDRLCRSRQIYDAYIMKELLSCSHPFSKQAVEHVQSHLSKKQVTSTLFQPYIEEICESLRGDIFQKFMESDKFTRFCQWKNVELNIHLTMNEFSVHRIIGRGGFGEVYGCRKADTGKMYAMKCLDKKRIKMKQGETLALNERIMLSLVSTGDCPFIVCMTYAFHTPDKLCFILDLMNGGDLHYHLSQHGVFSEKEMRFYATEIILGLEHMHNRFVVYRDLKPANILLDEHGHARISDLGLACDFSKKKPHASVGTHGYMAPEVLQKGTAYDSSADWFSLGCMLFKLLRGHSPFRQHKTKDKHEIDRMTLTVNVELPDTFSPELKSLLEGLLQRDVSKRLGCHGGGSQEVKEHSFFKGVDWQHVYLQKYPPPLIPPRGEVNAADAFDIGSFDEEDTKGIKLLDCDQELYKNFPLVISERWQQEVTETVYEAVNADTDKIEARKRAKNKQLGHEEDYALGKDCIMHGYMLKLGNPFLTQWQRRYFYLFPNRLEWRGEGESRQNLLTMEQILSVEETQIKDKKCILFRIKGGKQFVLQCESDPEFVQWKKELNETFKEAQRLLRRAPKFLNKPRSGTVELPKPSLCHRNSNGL"}, "NIM1": {"target": "T1, NIM1 (Homo sapiens, UniProt Q8IY84)", "T1 construct": "gene NIM1K"}, "TNK2": {"target": "TNK2 (Homo sapiens, UniProt Q07912)"}, "[1]": {"target": "T2, RSK3(Kin.Dom.1-N-terminal) (Homo sapiens, UniProt Q15349)", "T2 construct": "gene RPS6KA2; Kin.Dom.1-N-terminal"}, "LZK": {"target": "T3, LZK (Homo sapiens, UniProt O43283)", "T3 construct": "gene MAP3K13"}, "CSNK1G2": {"target": "CSNK1G2 (Homo sapiens, UniProt P78368)"}, "GRK1": {"target": "GRK1 (Homo sapiens, UniProt Q15835)"}, "JNK1": {"target": "T4, JNK1 (Homo sapiens, UniProt P45983)", "T4 construct": "gene MAPK8"}, "HUNK": {"target": "HUNK (Homo sapiens, UniProt P57058)"}, "MYLK4": {"target": "MYLK4 (Homo sapiens, UniProt Q86YV6)", "sequence (Q86YV6 whole entry)": "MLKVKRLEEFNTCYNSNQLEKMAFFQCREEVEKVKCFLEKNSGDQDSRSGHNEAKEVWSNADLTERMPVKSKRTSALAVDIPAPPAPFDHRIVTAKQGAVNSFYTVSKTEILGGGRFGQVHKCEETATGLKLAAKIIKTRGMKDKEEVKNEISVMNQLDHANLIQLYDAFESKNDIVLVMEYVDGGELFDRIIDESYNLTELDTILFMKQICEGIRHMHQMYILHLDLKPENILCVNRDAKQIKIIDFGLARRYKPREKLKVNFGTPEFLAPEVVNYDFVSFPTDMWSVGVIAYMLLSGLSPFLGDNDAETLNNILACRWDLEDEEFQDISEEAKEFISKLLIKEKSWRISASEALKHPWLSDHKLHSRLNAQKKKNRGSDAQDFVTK"}, "RET(V804L)": {"target": "RET(V804L) (Homo sapiens, UniProt P07949, V804L)"}, "TAOK1": {"target": "TAOK1 (Homo sapiens, UniProt Q7L7X3)"}, "FER": {"target": "FER (Homo sapiens, UniProt P16591)"}, "[2]": {"target": "EGFR(L747-S752del, P753S) (Homo sapiens, UniProt P00533, DEL747-752/P753S)"}, "FGFR2": {"target": "FGFR2 (Homo sapiens, UniProt P21802)", "sequence (P21802 whole entry)": "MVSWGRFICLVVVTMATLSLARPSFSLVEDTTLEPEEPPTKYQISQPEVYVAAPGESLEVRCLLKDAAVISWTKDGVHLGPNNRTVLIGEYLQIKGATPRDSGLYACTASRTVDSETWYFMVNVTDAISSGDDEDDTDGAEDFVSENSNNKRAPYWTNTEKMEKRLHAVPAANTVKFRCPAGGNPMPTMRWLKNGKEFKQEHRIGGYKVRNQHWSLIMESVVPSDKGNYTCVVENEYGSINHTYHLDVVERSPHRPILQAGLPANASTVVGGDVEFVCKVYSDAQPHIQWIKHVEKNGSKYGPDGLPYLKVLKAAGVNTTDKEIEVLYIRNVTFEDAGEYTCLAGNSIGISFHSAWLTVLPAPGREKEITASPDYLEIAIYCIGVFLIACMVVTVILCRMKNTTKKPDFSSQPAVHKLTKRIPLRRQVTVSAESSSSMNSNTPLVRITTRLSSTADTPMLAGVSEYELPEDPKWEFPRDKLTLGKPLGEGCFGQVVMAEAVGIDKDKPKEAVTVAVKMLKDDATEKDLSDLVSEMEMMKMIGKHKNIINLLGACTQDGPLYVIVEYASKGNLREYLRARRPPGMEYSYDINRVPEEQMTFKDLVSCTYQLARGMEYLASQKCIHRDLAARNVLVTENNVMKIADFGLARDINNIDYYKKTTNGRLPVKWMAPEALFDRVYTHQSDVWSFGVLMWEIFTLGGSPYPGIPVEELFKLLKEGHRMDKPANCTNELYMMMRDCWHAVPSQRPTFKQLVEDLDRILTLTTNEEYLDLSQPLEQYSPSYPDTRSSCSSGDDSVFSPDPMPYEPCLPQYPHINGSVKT"}, "EPHB2": {"target": "EPHB2 (Homo sapiens, UniProt P29323)", "sequence (P29323 whole entry)": "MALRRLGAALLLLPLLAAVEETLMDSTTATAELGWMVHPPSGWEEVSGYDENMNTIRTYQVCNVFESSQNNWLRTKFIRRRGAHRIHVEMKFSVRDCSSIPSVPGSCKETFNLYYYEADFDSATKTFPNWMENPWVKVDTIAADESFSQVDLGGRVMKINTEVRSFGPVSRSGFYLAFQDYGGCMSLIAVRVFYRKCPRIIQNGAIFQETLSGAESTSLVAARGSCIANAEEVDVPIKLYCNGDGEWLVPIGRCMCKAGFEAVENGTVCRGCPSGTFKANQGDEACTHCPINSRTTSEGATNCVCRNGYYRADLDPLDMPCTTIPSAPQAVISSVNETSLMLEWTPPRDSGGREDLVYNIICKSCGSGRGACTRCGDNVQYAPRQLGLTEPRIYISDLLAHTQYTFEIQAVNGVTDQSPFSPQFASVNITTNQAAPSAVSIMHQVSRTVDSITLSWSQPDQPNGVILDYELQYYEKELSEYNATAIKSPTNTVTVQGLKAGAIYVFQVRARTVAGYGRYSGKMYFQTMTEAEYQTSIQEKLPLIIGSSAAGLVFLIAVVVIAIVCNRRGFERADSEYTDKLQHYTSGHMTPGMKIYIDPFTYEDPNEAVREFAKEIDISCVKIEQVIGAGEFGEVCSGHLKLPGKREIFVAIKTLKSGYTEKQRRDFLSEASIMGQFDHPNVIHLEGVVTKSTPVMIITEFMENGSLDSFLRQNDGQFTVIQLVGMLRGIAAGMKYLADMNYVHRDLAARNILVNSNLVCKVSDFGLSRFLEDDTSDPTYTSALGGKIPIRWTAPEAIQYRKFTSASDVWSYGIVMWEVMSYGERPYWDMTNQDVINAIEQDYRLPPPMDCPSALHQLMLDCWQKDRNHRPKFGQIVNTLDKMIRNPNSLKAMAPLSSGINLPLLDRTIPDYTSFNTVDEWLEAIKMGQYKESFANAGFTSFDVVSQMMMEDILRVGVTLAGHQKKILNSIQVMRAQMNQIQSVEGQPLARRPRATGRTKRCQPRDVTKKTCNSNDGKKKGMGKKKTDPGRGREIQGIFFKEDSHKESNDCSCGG"}, "FGR": {"target": "FGR (Homo sapiens, UniProt P09769)", "sequence (P09769 whole entry)": "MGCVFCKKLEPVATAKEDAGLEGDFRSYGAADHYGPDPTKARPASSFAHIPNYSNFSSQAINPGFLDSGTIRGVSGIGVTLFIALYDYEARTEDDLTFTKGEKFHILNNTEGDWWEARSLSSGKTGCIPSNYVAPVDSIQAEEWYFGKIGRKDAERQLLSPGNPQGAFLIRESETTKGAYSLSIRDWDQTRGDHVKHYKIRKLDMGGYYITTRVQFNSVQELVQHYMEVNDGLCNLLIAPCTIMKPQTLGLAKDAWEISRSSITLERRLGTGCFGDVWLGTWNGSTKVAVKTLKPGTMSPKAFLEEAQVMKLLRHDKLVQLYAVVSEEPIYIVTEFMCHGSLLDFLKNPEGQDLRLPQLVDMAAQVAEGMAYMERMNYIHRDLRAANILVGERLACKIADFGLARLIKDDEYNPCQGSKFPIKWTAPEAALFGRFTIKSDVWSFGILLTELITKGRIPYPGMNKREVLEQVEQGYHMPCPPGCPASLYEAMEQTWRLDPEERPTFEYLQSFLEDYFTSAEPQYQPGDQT"}},
  "data": [
    {"smiles": "c1ccc2c(c1)Sc1ccccc1N2CCN1CCOCC1", "note": "[J54]", "values": [
      {"measurement": "remaining binding", "setting": "FLT4", "result": 96, "unit": "%"},
      {"measurement": "remaining binding", "setting": "GRK3", "result": 93, "unit": "%"},
      {"measurement": "remaining binding", "setting": "NIM1", "result": 100, "unit": "%"},
      {"measurement": "remaining binding", "setting": "TNK2", "result": 100, "unit": "%"},
      {"measurement": "remaining binding", "setting": "[1]", "result": 100, "unit": "%"},
      {"measurement": "remaining binding", "setting": "LZK", "result": 92, "unit": "%"},
      {"measurement": "remaining binding", "setting": "CSNK1G2", "result": 93, "unit": "%"},
      {"measurement": "remaining binding", "setting": "GRK1", "result": 100, "unit": "%"},
      {"measurement": "remaining binding", "setting": "JNK1", "result": 82, "unit": "%"},
      {"measurement": "remaining binding", "setting": "HUNK", "result": 58, "unit": "%"},
      {"measurement": "remaining binding", "setting": "MYLK4", "result": 99, "unit": "%"},
      {"measurement": "remaining binding", "setting": "RET(V804L)", "result": 88, "unit": "%"},
      {"measurement": "remaining binding", "setting": "TAOK1", "result": 100, "unit": "%"},
      {"measurement": "remaining binding", "setting": "FER", "result": 100, "unit": "%"},
      {"measurement": "remaining binding", "setting": "[2]", "result": 92, "unit": "%"},
      {"measurement": "remaining binding", "setting": "FGFR2", "result": 100, "unit": "%"},
      {"measurement": "remaining binding", "setting": "EPHB2", "result": 100, "unit": "%"},
      {"measurement": "remaining binding", "setting": "FGR", "result": 100, "unit": "%"}
    ]}
  ]
}
